According to patent US20250098679A1, “HERBICIDAL PYRIDONE DERIVATIVES” (SYNGENTA CROP PROTECTION AG, priority 2021, published 2025):

Key:
Type in all cases: in vivo
Conditions in all cases: evaluated after 13 days
Zea mays (ZEAMX) = test: Post-emergence Test, Zea mays (ZEAMX); set-up: key to percentage damage caused to the plant, ZEAMX (five-point scale): 5=81-100%, 4=61-80%, 3=41-60%, 2=21-40%, 1=0-20% damage
Method: (§1) Seeds of a variety of test species are sown in standard soil in pots (Setaria faberi (SETFA), Echinochloa crus-galli (ECHCG), Zea mays (ZEAMX), Ipomoea hederacea (IPOHE), Amaranthus palmeri (AMAPA), Amaranthus retoflexus (AMARE)). After 8 days cultivation under controlled conditions in a glasshouse (at 24° C./16° C., day/night; 14 hours light; 65% humidity), the plants are sprayed with an aqueous spray solution derived from the formulation of the technical active ingredient in acetone/water (50:50) solution containing 0.5% Tween 20 (polyoxyethelyene sorbitan monolaurate, CAS RN 9005-64-5). Compounds are applied at 1000 g/ha unless otherwise stated. The test plants are then grown in a glasshouse under controlled conditions in a glasshouse (at 24° C./16° C., day/night; 14 hours light; 65% humidity) and watered twice daily. After 13 days the test is evaluated for the percentage damage caused to the plant. The biological activities are shown in the following table on a five-point scale (5=81-100%; 4=61-80%; 3=41-60%; 2=21-40%; 1=0-20%; -=not tested).

[1] = system: Echinochloa crus-galli (ECHCG); test: Post-emergence Test, Echinochloa crus-galli (ECHCG); set-up: key to percentage damage caused to the plant, ECHCG (five-point scale): 5=81-100%, 4=61-80%, 3=41-60%, 2=21-40%, 1=0-20% damage
Method: as §1

[2] = system: Amaranthus palmeri (AMAPA); test: Post-emergence Test, Amaranthus palmeri (AMAPA); set-up: key: 5=81-100%, 4=61-80%, 3=41-60%, 2=21-40%, 1=0-20% damage
Method: as §1

Setaria faberi (SETFA) = test: Post-emergence Test, Setaria faberi (SETFA); set-up: key to percentage damage caused to the plant, SETFA (five-point scale): 5=81-100%, 4=61-80%, 3=41-60%, 2=21-40%, 1=0-20% damage
Method: as §1

[3] = system: Ipomoea hederacea (IPOHE); test: Post-emergence Test, Ipomoea hederacea (IPOHE); set-up: key to percentage damage caused to the plant, IPOHE (five-point scale): 5=81-100%, 4=61-80%, 3=41-60%, 2=21-40%, 1=0-20% damage
Method: as §1

[4] = system: Amaranthus retoflexus (AMARE); test: Post-emergence Test, Amaranthus retoflexus (AMARE); set-up: key to percentage damage caused to the plant, AMARE (five-point scale): 5=81-100%, 4=61-80%, 3=41-60%, 2=21-40%, 1=0-20% damage
Method: as §1

CCn1c(Cn2cnc(C(F)(F)F)c2)cc(=O)c(C(=O)O)c1-c1ccc(Cl)c(Cl)c1 [Compound 10, 2-(3,4-dichlorophenyl)-1-ethyl-4-oxo-6-[[4-(trifluoromethyl)imidazol-1-yl]methyl]pyridine-3-carboxylic acid]
0: percentage damage caused to the plant, ECHCG (five-point scale) ([1]; 1000 g/ha) | percentage damage caused to the plant, AMAPA (five-point scale) ([2]; 1000 g/ha) | percentage damage caused to the plant, SETFA (five-point scale) (Setaria faberi (SETFA); 1000 g/ha) | percentage damage caused to the plant, AMARE (five-point scale) ([4]; 1000 g/ha)
1 (1=0-20%): percentage damage caused to the plant, ZEAMX (five-point scale) (Zea mays (ZEAMX); 1000 g/ha) | percentage damage caused to the plant, IPOHE (five-point scale) ([3]; 1000 g/ha)

CCOC(=O)c1c(-c2ccc(Cl)c(Cl)c2)n(CC)c(Cn2ccc(C(F)(F)F)n2)c(Br)c1=O [Compound 23, ethyl 5-bromo-2-(3,4-dichlorophenyl)-1-ethyl-4-oxo-6-[[3-(trifluoromethyl)pyrazol-1-yl]methyl]pyridine-3-carboxylate]
2 (2=21-40%): percentage damage caused to the plant, ECHCG (five-point scale) ([1]; 1000 g/ha) | percentage damage caused to the plant, AMAPA (five-point scale) ([2]; 1000 g/ha) | percentage damage caused to the plant, SETFA (five-point scale) (Setaria faberi (SETFA); 1000 g/ha) | percentage damage caused to the plant, IPOHE (five-point scale) ([3]; 1000 g/ha)
1 (1=0-20%): percentage damage caused to the plant, ZEAMX (five-point scale) (Zea mays (ZEAMX); 1000 g/ha) | percentage damage caused to the plant, AMARE (five-point scale) ([4]; 1000 g/ha)

CCOC(=O)c1c(-c2ccc(Cl)c(Cl)c2)n(CC)c(Cn2ccnc2)c(Br)c1=O [Compound 24, ethyl 5-bromo-2-(3,4-dichlorophenyl)-1-ethyl-6-(imidazol-1-ylmethyl)-4-oxo-pyridine-3-carboxylate]
1 (1=0-20%): percentage damage caused to the plant, ZEAMX (five-point scale) (Zea mays (ZEAMX); 250 g/Ha) | percentage damage caused to the plant, ECHCG (five-point scale) ([1]; 250 g/Ha) | percentage damage caused to the plant, ECHCG (five-point scale) ([1]; 1000 g/ha) | percentage damage caused to the plant, AMAPA (five-point scale) ([2]; 250 g/Ha) | percentage damage caused to the plant, AMAPA (five-point scale) ([2]; 1000 g/ha) | percentage damage caused to the plant, SETFA (five-point scale) (Setaria faberi (SETFA); 250 g/Ha) | percentage damage caused to the plant, SETFA (five-point scale) (Setaria faberi (SETFA); 1000 g/ha) | percentage damage caused to the plant, IPOHE (five-point scale) ([3]; 1000 g/ha) | percentage damage caused to the plant, AMARE (five-point scale) ([4]; 250 g/Ha) | percentage damage caused to the plant, AMARE (five-point scale) ([4]; 1000 g/ha)
2 (2=21-40%): percentage damage caused to the plant, IPOHE (five-point scale) ([3]; 250 g/Ha)
3 (3=41-60%): percentage damage caused to the plant, ZEAMX (five-point scale) (Zea mays (ZEAMX); 1000 g/ha)

CCOC(=O)c1c(-c2ccc(Cl)c(Cl)c2)n(CC)c(Cn2cnc([N+](=O)[O-])n2)cc1=O [Compound 43, ethyl 2-(3,4-dichlorophenyl)-1-ethyl-6-[(3-nitro-1,2,4-triazol-1-yl)methyl]-4-oxo-pyridine-3-carboxylate]
1 (1=0-20%): percentage damage caused to the plant, ZEAMX (five-point scale) (Zea mays (ZEAMX); 1000 g/ha) | percentage damage caused to the plant, ECHCG (five-point scale) ([1]; 250 g/Ha) | percentage damage caused to the plant, ECHCG (five-point scale) ([1]; 1000 g/ha) | percentage damage caused to the plant, AMAPA (five-point scale) ([2]; 250 g/Ha) | percentage damage caused to the plant, AMAPA (five-point scale) ([2]; 1000 g/ha) | percentage damage caused to the plant, SETFA (five-point scale) (Setaria faberi (SETFA); 1000 g/ha) | percentage damage caused to the plant, AMARE (five-point scale) ([4]; 250 g/Ha)
0: percentage damage caused to the plant, ZEAMX (five-point scale) (Zea mays (ZEAMX); 250 g/Ha) | percentage damage caused to the plant, SETFA (five-point scale) (Setaria faberi (SETFA); 250 g/Ha) | percentage damage caused to the plant, IPOHE (five-point scale) ([3]; 250 g/Ha) | percentage damage caused to the plant, IPOHE (five-point scale) ([3]; 1000 g/ha) | percentage damage caused to the plant, AMARE (five-point scale) ([4]; 1000 g/ha)

CCOC(=O)c1c(-c2ccc(Cl)c(Cl)c2)n(CC)c(Cn2cnc([N+](=O)[O-])c2)cc1=O [Compound 51, ethyl 2-(3,4-dichlorophenyl)-1-ethyl-6-[(4-nitroimidazol-1-yl)methyl]-4-oxo-pyridine-3-carboxylate]
1 (1=0-20%): percentage damage caused to the plant, ECHCG (five-point scale) ([1]; 1000 g/ha) | percentage damage caused to the plant, AMAPA (five-point scale) ([2]; 1000 g/ha) | percentage damage caused to the plant, SETFA (five-point scale) (Setaria faberi (SETFA); 1000 g/ha) | percentage damage caused to the plant, IPOHE (five-point scale) ([3]; 1000 g/ha)
0: percentage damage caused to the plant, ZEAMX (five-point scale) (Zea mays (ZEAMX); 1000 g/ha) | percentage damage caused to the plant, AMARE (five-point scale) ([4]; 1000 g/ha)

CCOC(=O)c1c(-c2ccc(Cl)c(Cl)c2)n(CC)c(Cn2cnc(C#N)n2)cc1=O [Compound 54, ethyl 6-[(3-cyano-1,2,4-triazol-1-yl)methyl]-2-(3,4-dichlorophenyl)-1-ethyl-4-oxo-pyridine-3-carboxylate]
0: percentage damage caused to the plant, IPOHE (five-point scale) ([3]; 1000 g/ha)
1 (1=0-20%): percentage damage caused to the plant, ZEAMX (five-point scale) (Zea mays (ZEAMX); 1000 g/ha) | percentage damage caused to the plant, ECHCG (five-point scale) ([1]; 1000 g/ha) | percentage damage caused to the plant, AMAPA (five-point scale) ([2]; 1000 g/ha) | percentage damage caused to the plant, SETFA (five-point scale) (Setaria faberi (SETFA); 1000 g/ha) | percentage damage caused to the plant, AMARE (five-point scale) ([4]; 1000 g/ha)

CCn1c(Cn2nc3ccccc3n2)cc(=O)c(C(=O)O)c1-c1ccc(Cl)c(Cl)c1 [Compound 55, 6-(benzotriazol-2-ylmethyl)-2-(3,4-dichlorophenyl)-1-ethyl-4-oxo-pyridine-3-carboxylic acid]
0: percentage damage caused to the plant, ZEAMX (five-point scale) (Zea mays (ZEAMX); 250 g/Ha) | percentage damage caused to the plant, SETFA (five-point scale) (Setaria faberi (SETFA); 250 g/Ha) | percentage damage caused to the plant, IPOHE (five-point scale) ([3]; 250 g/Ha) | percentage damage caused to the plant, AMARE (five-point scale) ([4]; 1000 g/ha)
2 (2=21-40%): percentage damage caused to the plant, ECHCG (five-point scale) ([1]; 250 g/Ha) | percentage damage caused to the plant, ECHCG (five-point scale) ([1]; 1000 g/ha)
1 (1=0-20%): percentage damage caused to the plant, ZEAMX (five-point scale) (Zea mays (ZEAMX); 1000 g/ha) | percentage damage caused to the plant, AMAPA (five-point scale) ([2]; 250 g/Ha) | percentage damage caused to the plant, SETFA (five-point scale) (Setaria faberi (SETFA); 1000 g/ha) | percentage damage caused to the plant, AMARE (five-point scale) ([4]; 250 g/Ha)
3 (3=41-60%): percentage damage caused to the plant, AMAPA (five-point scale) ([2]; 1000 g/ha) | percentage damage caused to the plant, IPOHE (five-point scale) ([3]; 1000 g/ha)

CCn1c(Cn2ccc(Cl)n2)cc(=O)c(C(=O)O)c1-c1ccc(Cl)c(C#N)c1 [Compound 131, 2-(4-chloro-3-cyano-phenyl)-6-[(3-chloropyrazol-1-yl)methyl]-1-ethyl-4-oxo-pyridine-3-carboxamide acid]
2 (2=21-40%): percentage damage caused to the plant, SETFA (five-point scale) (Setaria faberi (SETFA); 1000 g/ha)
1 (1=0-20%): percentage damage caused to the plant, IPOHE (five-point scale) ([3]; 1000 g/ha)
0: percentage damage caused to the plant, ZEAMX (five-point scale) (Zea mays (ZEAMX); 1000 g/ha) | percentage damage caused to the plant, AMAPA (five-point scale) ([2]; 1000 g/ha) | percentage damage caused to the plant, AMARE (five-point scale) ([4]; 1000 g/ha)

CCn1c(Cn2nc(C#N)cc2C#N)cc(=O)c(C(=O)O)c1-c1ccc(Cl)c(Cl)c1 [Compound 132, 2-(3,4-dichlorophenyl)-6-[(3,5-dicyanopyrazol-1-yl)methyl]-1-ethyl-4-oxo-pyridine-3-carboxylic acid]
0: percentage damage caused to the plant, IPOHE (five-point scale) ([3]; 1000 g/ha) | percentage damage caused to the plant, AMARE (five-point scale) ([4]; 1000 g/ha)
1 (1=0-20%): percentage damage caused to the plant, ZEAMX (five-point scale) (Zea mays (ZEAMX); 1000 g/ha) | percentage damage caused to the plant, ECHCG (five-point scale) ([1]; 1000 g/ha) | percentage damage caused to the plant, SETFA (five-point scale) (Setaria faberi (SETFA); 1000 g/ha)

CCn1c(Cn2ccc(-c3cccc(Cl)c3)n2)cc(=O)c(C(=O)O)c1-c1ccc(Cl)c(Cl)c1 [Compound 202, 6-[[3-(3-chlorophenyl)pyrazol-1-yl]methyl]-2-(3,4-dichlorophenyl)-1-ethyl-4-oxo-pyridine-3-carboxylic acid]
0: Post-emergence Test AMAPA, percentage damage caused to the plant (five-point scale) ([2]; 1000 g/ha) | Post-emergence Test AMARE, percentage damage caused to the plant (five-point scale) ([4]; 1000 g/ha)
1 (1=0-20%): Post-emergence Test ZEAMX, percentage damage caused to the plant (five-point scale) (Zea mays (ZEAMX); 1000 g/ha) | Post-emergence Test SETFA, percentage damage caused to the plant (five-point scale) (Setaria faberi (SETFA); 1000 g/ha) | Post-emergence Test IPOHE, percentage damage caused to the plant (five-point scale) ([3]; 1000 g/ha)
